Assay results from patent US20260308158A1, “TARGETING RNAS ASSOCIATED WITH TAUOPATHIES WITH SMALL MOLECULES” (University of Florida Research Foundation, Incorporated, priority 2023, published 2026).

How the values were obtained:
DDPAC I17T mutant RNA = test: In vitro Chem-CLIP, DDPAC I17T RNA; format: binding; settings: 50 μM
Experimental: (§1) In Vitro Chemical Cross-linking and Isolation by Pull Down (Chem-CLIP) and Competitive Chem-CLIP (C-Chem-CLIP). Growth medium [Dulbecco's modified eagle medium (DMEM; corning, 10-013-CM) with 1× Glutagro (corning)] and 10% (v/v) fetal bovine serum (FBS; Sigma, 12003C) was inactivated by heating at 95° C. for 15 min and slowly cooling to room temperature. Approximately 10,000 counts of 32P 5′-end labeled tau WT, DDPAC, WT+I17T, or DDPAC+I17T RNA were folded in 10 μL growth medium by heating at 65° C. for 5 min and slowly cooling to room temperature. Chem-CLIP probe 3 or negative control probe 4 was then added into the folded RNA in a total volume of 20 μL, and the mixtures were incubated at 37° C. for 1 h. For C-Chem-CLIP, dilutions of competing compound 2 were incubated with RNA for 30 min before adding 3. […]
(§2) The Chem-CLIP probe 3 or control probe 4 was then clicked to disulfide biotin azide (2 μL of 10 mM solution prepared in DMSO solution per sample; Click Chemistry Tools, catalog no. 1168-10). […] The radioactive signal from bound RNAs (on the beads) and unbound RNAs (in the wash buffer) was measured by using a Beckman Coulter LS6500 Liquid Scintillation Counter as Rbound and Runbound. Enrichment was calculated as the percentage of radiolabeled RNA captured by beads calculated as Rbound/(Rbound+Runbound).

[1] = test system: endogenous MAPT pre-mRNA in LAN5 cells; test: Chem-CLIP / C-Chem-CLIP in LAN5 cells; format: cell-based; settings: 3 at 1.5 μM
Experimental: (§3) Measuring Cellular Occupancy by Chem-CLIP and C-Chem-CLIP. LAN5 cells were grown to ~80% confluency in 100 mm diameter dishes. HeLa cells were transfected as described in the Luciferase Reporter Assay to Study Exon 10 Alternative Splicing except they were re-plated in 100 mm diameter dishes and grown to ~80% confluency (~1 day). The cells were then treated with 1.5 μM of 3 or 4 for 12 h. For C-Chem-CLIP, dilutions of competing compounds 1 or 2 were pre-incubated with cells for 12 h prior to adding 3. After addition of 3, the cells were incubated for an additional 12 h. After the treatment period, whether for Chem-CLIP or C-Chem-CLIP studies, the cells were washed with 10 mL of 1×DPBS. Ice-cold 1×DPBS (10 mL) was then added to the plate followed by irradiation with 365 nm light in a UV Stratalinker 2400 (Stratagene). Cells were scraped with a cell scraper, transferred to a 15 mL conical vial, and collected by centrifugation. Total RNA was extracted using TRIzol LS Reagent (Invitrogen) per the manufacturer's protocol. […]
(§4) RT-qPCR was performed on RNA samples before and after pull-down as described in Real-Time Quantitative PCR to enable calculation of fold enrichment in the pulled down samples. Relative fold enrichment of tau pre-mRNA was measured using Equation 3: […]

[2] = test system: DDPAC MAPT mini-gene pre-mRNA; test: Chem-CLIP / C-Chem-CLIP in HeLa cells transfected with DDPAC mini-gene; format: cell-based; settings: 3 at 1.5 μM, HeLa DDPAC mini-gene
Experimental: as §3, §4

WT SRE RNA = test: In vitro Chem-CLIP, WT SRE RNA; format: binding
Experimental: as §1, §2

[3] = test system: DDPAC I17T MAPT mini-gene pre-mRNA; test: Chem-CLIP in HeLa cells transfected with DDPAC I17T mini-gene; format: cell-based; settings: 1.5 μM
Experimental: as §3, §4

[4] = test system: WT MAPT mini-gene pre-mRNA; test: Chem-CLIP / C-Chem-CLIP in HeLa cells transfected with WT mini-gene; format: cell-based; settings: 3 at 1.5 μM, HeLa WT mini-gene
Experimental: as §3, §4

WT I17T mutant RNA = test: In vitro Chem-CLIP, WT I17T RNA; format: binding; settings: 50 μM
Experimental: as §1, §2

[5] = test system: MAPT pre-mRNA in LAN5 cells; test: Chem-CLIP-Map-Seq in LAN5 cells; format: cell-based; settings: 3 at 1.5 μM
Experimental: Chem-CLIP-Map-Seq. Chem-CLIP-Map-Seq was performed as previously described.^32 Briefly, LAN5 cells were grown to ~80% confluency in 100 mm diameter dishes and treated with 1.5 μM of 3 for 12 h. Total RNA was extracted and pulled down as described in Measuring Cellular Occupancy by Chem-CLIP and C-Chem-CLIP. RT was carried out using 1 μg of RNA pulled down by 3, […] of a MAPT gene-specific primer (5′-[…] (SEQ ID NO: 7)), and SuperScript III (Invitrogen, 18080400) in a total volume of 10 μL per the manufacturer's protocol.
After digestion with RNase A and RNase H (part of the Superscript III protocol), the cDNA from the RT reaction was cleaned up using RNA Clean XP beads (Beckman Coulter) according to the manufacturer's protocol. The purified cDNA was ligated to a 3′ ssDNA adaptor (5′-Phosphate-[…]-[…]-3C spacer (SEQ ID NO: 8)) by incubating 2 μL 10× T4 RNA Ligase Buffer, 1 μL of 1 mM ATP, 10 μL 50% (w/v) PEG 8000, 5 μL cDNA, 1 μL of 20 μM ssDNA adaptor, and 1 μL of T4 RNA Ligase [New England BioLabs, Inc. (NEB)]. The ligated cDNA was purified again with RNAClean XP beads as described above.
PCR amplification was performed with the purified ligated cDNA by using Phusion polymerase (NEB) with cycling conditions of 98° C. for 30 s, 65° C. for 20 s, and 72° C. for 60 s and forward (5′-[…] (SEQ ID NO: 9)) and reverse (5′-[…] (SEQ ID NO: 10)) primers for 25 cycles. […]

DDPAC SRE RNA = test: In vitro Chem-CLIP, DDPAC SRE RNA; format: binding
Experimental: as §1, §2

[6] = test system: WT I17T MAPT mini-gene pre-mRNA; test: Chem-CLIP in HeLa cells transfected with WT I17T mini-gene; format: cell-based; settings: 1.5 μM
Experimental: as §3, §4

[7] = in vitro Chem-CLIP, read-out: IC50 for engaging and pull-down of RNA

For `C#CCCC1(CCC(=O)NCCN(CCCc2cnc(N)cc2OC)CCCn2cnc3c4ccccc4n(C)c3c2=O)N=N1` [Compound 3], the “percent pull-down (engagement)” value (DDPAC I17T mutant RNA) was 9±0.7%, the “enrichment of MAPT pre-mRNA” value [1] was 3.6±0.2 fold and the “enrichment of MAPT reporter” value [2] was 3.8±0.1 fold. The maximum percent pull-down (WT SRE RNA; 10 and 50 μM) was ~ 40%, the IC50 (WT SRE RNA; [7]) was ~1 µM and the “enrichment of mutant reporter” value [3] was “nor was enrichment observed”. The “enrichment of MAPT reporter” value [4] was 3.9±0.1 fold, the “percent pull-down (engagement)” value (WT I17T mutant RNA) was 15±0.9% and the “cross-linking site in MAPT RNA” value [5] was “cross-linking occurred to the G in the 5′ CG closing base pair of the A-bulge”. The maximum percent pull-down (DDPAC SRE RNA; 10 and 50 μM) was ~ 40%, the IC50 (DDPAC SRE RNA; [7]) was ~1 µM and the “enrichment of mutant reporter” value [6] was “nor was enrichment observed”.
